Patent US6855730B2, “3-methylidenyl-2-indolinone modulators of protein kinase” (Sugen, Inc., priority 1998, dated 2005)

Assays:
PDGFR-β = biological target: T1, PDGFR-β (Homo sapiens, UniProt P09619); test: Biochemical PDGFR assay (ELISA, PDGFR-β expressing NIH 3T3 cell lysate); conditions: read-out: bio PDGF IC50
T1 construct: host or cells: NIH 3T3
Outline: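 Phosphorylation was read by ELISA (anti-phosphotyrosine serum, peroxidase secondary, ABTS at 410 nm) after a 30 min room-temperature reaction with 20 μM ATP, EDTA-stopped. Kinase was lysate-derived PDGFR-β (NIH 3T3) immobilised via 28D4C10 antibody, compound added 30 min before ATP.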

[1] = biological target: Myc-GyrB-FGFR fusion protein (Homo sapiens, UniProt P11362); test: Biochemical FGFR assay (ELISA); conditions: read-out: bio fgfR1 IC50
Chain of Myc-GyrB-FGFR fusion protein (P11362 478-767 limits assumed): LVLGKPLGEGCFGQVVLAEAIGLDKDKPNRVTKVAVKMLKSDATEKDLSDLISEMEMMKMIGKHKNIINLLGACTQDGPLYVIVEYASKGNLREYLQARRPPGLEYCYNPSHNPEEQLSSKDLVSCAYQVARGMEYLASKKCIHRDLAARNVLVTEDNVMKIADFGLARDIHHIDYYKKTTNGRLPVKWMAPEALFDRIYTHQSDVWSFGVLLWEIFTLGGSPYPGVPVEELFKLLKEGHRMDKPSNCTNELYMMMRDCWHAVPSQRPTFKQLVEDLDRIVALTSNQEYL

T1 sequence (P09619 33-1106): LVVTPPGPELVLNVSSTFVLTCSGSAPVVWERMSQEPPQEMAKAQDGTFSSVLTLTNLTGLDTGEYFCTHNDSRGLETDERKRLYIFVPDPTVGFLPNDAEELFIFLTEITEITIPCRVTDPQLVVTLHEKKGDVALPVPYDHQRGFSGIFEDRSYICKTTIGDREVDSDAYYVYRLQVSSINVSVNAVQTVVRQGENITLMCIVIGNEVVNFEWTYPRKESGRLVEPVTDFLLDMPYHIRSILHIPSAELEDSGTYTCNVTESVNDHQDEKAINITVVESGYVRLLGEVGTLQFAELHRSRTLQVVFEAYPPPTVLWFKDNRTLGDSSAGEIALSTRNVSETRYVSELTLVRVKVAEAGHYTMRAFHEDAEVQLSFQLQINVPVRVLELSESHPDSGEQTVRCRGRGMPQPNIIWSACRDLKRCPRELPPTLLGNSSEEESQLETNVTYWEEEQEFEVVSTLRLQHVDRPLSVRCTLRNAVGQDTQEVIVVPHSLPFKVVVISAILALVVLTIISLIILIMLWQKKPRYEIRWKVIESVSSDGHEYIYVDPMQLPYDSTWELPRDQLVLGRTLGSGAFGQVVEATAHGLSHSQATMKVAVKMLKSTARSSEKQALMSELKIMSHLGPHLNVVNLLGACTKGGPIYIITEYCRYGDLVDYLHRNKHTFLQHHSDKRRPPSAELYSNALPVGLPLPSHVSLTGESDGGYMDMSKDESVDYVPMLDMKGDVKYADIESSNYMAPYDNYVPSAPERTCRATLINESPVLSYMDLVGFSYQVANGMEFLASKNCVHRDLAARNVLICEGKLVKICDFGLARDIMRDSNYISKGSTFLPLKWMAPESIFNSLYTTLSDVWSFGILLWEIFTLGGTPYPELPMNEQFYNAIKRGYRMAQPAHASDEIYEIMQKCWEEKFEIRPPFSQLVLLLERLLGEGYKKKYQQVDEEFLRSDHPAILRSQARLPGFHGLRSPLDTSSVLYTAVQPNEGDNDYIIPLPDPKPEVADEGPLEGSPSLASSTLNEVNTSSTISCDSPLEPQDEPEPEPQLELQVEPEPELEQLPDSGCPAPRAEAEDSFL

SMILES | IC50 (PDGFR-β) [nM] | IC50 [1] [nM]
O=C(O)CCc1c(/C=C2\C(=O)Nc3ccccc32)[nH]c2c1CCCC2 [Example 190, 3-[2-(2-Oxo-1,2-dihydro-indol-3-ylidenemethyl)-4,5,6,7-tetrahydro-1H-indol-3-yl]-propionic acid] | 2080 | 5850
O=C(O)CCc1c(/C=C2\C(=O)Nc3ccc(Cl)cc32)[nH]c2c1CCCC2 [Example 191, 3-[2-(5-Chloro-2-oxo-1,2-dihydroindol-3-ylidenemethyl)-4,5,6,7-tetrahydro-1H-indol-3-yl]-propionic acid] | 50 | 40
O=C(O)CCc1c(/C=C2\C(=O)Nc3ccc(Br)cc32)[nH]c2c1CCCC2 [Example 192, 3-[2-(5-Bromo-2-oxo-1,2-dihydroindol-3-ylidenemethyl)-4,5,6,7-tetrahydro-1H-indol-3yl]-propionic acid] | 4 | 1810
Cc1cccc2c1/C(=C/c1[nH]c3c(c1CCC(=O)O)CCCC3)C(=O)N2 [Example 193, 3-[2-(4-Methyl-2-oxo-1,2-dihydroindol-3-ylidenemethyl)-4,5,6,7-tetrahydro-1H-indol-3-yl]-propionic acid] | 44600 | 20
Cc1ccc2c(c1)/C(=C/c1[nH]c3c(c1CCC(=O)O)CCCC3)C(=O)N2 [Example 194, 3-[2-(5-Methyl-2-oxo-1,2-dihydroindol-3-ylidenemethyl)-4,5,6,7-tetrahydro-1H-indol-3-yl]-propionic acid] | 81400 | 40
O=C(O)CCc1c(/C=C2\C(=O)Nc3cc(Cl)ccc32)[nH]c2c1CCCC2 [Example 195, 3-[2-(6-Chloro-2-oxo-1,2-dihydroindol-3-ylidenemethyl)-4,5,6,7-tetrahydro-1H-indol-3-yl]-propionic acid] | 2040 | 20
COc1ccc2c(c1)NC(=O)/C2=C\c1[nH]c2c(c1CCC(=O)O)CCCC2 [Example 196, 3-[2-(6-Methoxy-2-oxo-1,2-dihydroindol-3-ylidenemethyl)-4,5,6,7-tetrahydro-1H-indol-3-yl]-propionic acid] | 33700 | 50
CN(C)C(=O)CCc1c(/C=C2\C(=O)Nc3ccccc32)[nH]c2c1CCCC2 [Example 197, N,N-Dimethyl-3-[2-(2-oxo-1,2-dihydroindol-3-ylidenemethyl)-4,5,6,7-tetrahydro-1H-indol-3-yl]-propionamide] | > 100000 | –
CN(C)CCCc1c(/C=C2\C(=O)Nc3ccccc32)[nH]c2c1CCCC2 [Example 198, 3-[3-(3-Dimethylaminopropyl)-4,5,6,7-tetrahydro-1H-indol-2-ylmethylene]-1,3-dihydroindol-2-one] | 40 | –
NC(=O)CCc1c(/C=C2\C(=O)Nc3ccccc32)[nH]c2c1CCCC2 [Example 199, 3-[2-(2-Oxo-1,2-dihydroindol-3-ylidenemethyl)-4,5,6,7-tetrahydro-1H-indol-3-yl]-propionamide] | 890 | –
O=C1Nc2ccccc2/C1=C/c1[nH]c2c(c1CCC(=O)N1CCOCC1)CCCC2 [Example 200, 3-[3-(3-Morpholin-4-yl-3-oxopropyl)-4,5,6,7-tetrahydro-1H-indol-2-ylmethylene]-1,3-dihydroindol-2-one] | 11800 | –
CNC(=O)CCc1c(/C=C2\C(=O)Nc3ccccc32)[nH]c2c1CCCC2 [Example 201, N-Methyl-3-[2-(2-oxo-1,2-dihydroindol-3-ylidenemethyl)-4,5,6,7-tetrahydro-1H-indol-3-yl]-propionamide] | 1730 | –
O=C(CCc1c(/C=C2\C(=O)Nc3ccccc32)[nH]c2c1CCCC2)NCCN1CCOCC1 [Example 202, N-(2-Morpholin-4-ylethyl)-3-[2-(2-oxo-1,2-dihydroindol-3-ylidenemethyl)-4,5,6,7-tetrahydro-1H-indol-3-yl]-propionamide] | 9580 | –
O=C(O)CCc1c(/C=C2\C(=O)Nc3ncccc32)[nH]c2c1CCCC2 [Example 203, 3-[2-(2-Oxo-1,2-dihydropyrrolo[2,3-b]pyridin-3-ylidenemethyl)-4,5,6,7-tetrahydro-1H-indol-3-yl]-propionic acid] | 150 | 2270
COc1cccc(-c2ccc3c(c2)NC(=O)/C3=C\c2[nH]c3c(c2CCC(=O)O)CCCC3)c1 [Example 204, 3-{2-[6-(3-Methoxyphenyl)-2-oxo-1,2-dihydro-indol-3-ylidenemethyl]-4,5,6,7-tetrahydro-1H-indol-3-yl}-propionic acid] | 680 | 590
CC(C)NS(=O)(=O)c1ccc2c(c1)C(=Cc1[nH]c3c(c1CCC(=O)O)CCCC3)C(=O)N2 [Example 208, 3-[2-(5-Isopropylaminosulfonyl-2-oxo-1,2-dihydroindol-3-ylidenemethyl)-4,5,6,7-tetrahydro-1H-indol-3-yl]-propionic acid] | 23400 | –
Cc1c[nH]c(/C=C2\C(=O)Nc3cccc(C)c32)c1CCC(=O)O [Example 218, 3-[2-(4-Methyl-2-oxo-1,2-dihydroindol-3-ylidenemethyl)-4-methyl-1H-pyrrol-3-yl]-propionic acid] | 2110 | –
Cc1c[nH]c(C=C2C(=O)Nc3cc(Cl)ccc32)c1CCC(=O)O [Example 219, 3-[2-(6-Chloro-2-oxo-1,2-dihydroindol-3-ylidenemethyl)-4-methyl-1H-pyrrol-3-yl]-propionic acid] | 470 | –
Cc1c[nH]c(/C=C2\C(=O)Nc3ccc(Br)cc32)c1CCC(=O)O [Example 220, 3-[2-(5-Bromo-2-oxo-1,2-dihydroindol-3-ylidenemethyl)-4-methyl-1H-pyrrol-3-yl]-propionic acid] | 620 | –

The next lines start with the values.

IC50 (PDGFR-β) [nM] | IC50 [1] [nM] | SMILES
50 | 4260 | CCOC(=O)c1c(C)[nH]c(/C=C2\C(=O)Nc3ccc(Br)cc32)c1CCC(=O)O [Compound 114, 5-(5-Bromo-2-oxo-1,2-dihydroindol-3-ylidenemethyl)-4-(2-carboxyethyl)-2-methyl-1H-pyrrole-3-carboxylic acid ethyl ester]
20 | 290 | Cc1cc(CCC(=O)O)c(/C=C2\C(=O)Nc3ccc(Br)cc32)[nH]1 [Compound 116, 3-[2-(5-Bromo-2-oxo-1,2-dihydroindol-3-ylidenemethyl)-5-methyl-1H-pyrrol-3-yl]-propionic acid]
> 100000 | – | COc1c(C(C)C)cc(/C=C2/C(=O)Nc3ccccc32)cc1C(C)C [Example 1, 3-(3,5-Diisopropyl-4-methoxybenzylidene)-1,3-dihydroindol-2-one]
> 100000 | – | COc1c(C(C)C)cc(/C=C2/C(=O)Nc3ccc(Cl)cc32)cc1C(C)C [Example 2, 5-Chloro-3-(3,5-diisopropyl-4-methoxybenzylidene)-1,3-dihydroindol-2-one]
68600 | > 20000 | O=C1Nc2ccc(N=Cc3cc4ccccc4[nH]3)cc2C1=Cc1cc2ccccc2[nH]1 [Example 171, 3-(1H-indol-2-ylmethylene)-5-[(1H-indol-2-ylmethylene)-amino]-1,3-dihydroindol-2-one]
89400 | 280 | NS(=O)(=O)c1ccc2c(c1)/C(=C/c1c[nH]c3ccccc13)C(=O)N2 [Example 172, 3-(1H-Indol-3-ylmethylene)-2-oxo-2,3-dihydro-1H-indole-5-sulfonic acid amide]
69100 | 290 | CNS(=O)(=O)c1ccc2c(c1)/C(=C/c1cc3ccccc3[nH]1)C(=O)N2 [Example 173, 3-(1H-Indol-2-ylmethylene)-2-oxo-2,3-dihydro-1H-indole-5-sulfonic acid methylamide]
2500 | 410 | O=C1Nc2ccc(C(=O)O)cc2/C1=C/c1c[nH]c2ccccc12 [Example 174, 3-(1H-Indol-3-ylmethylene)-2-oxo-2,3-dihydro-1H-indole-5-carboxylic acid]
> 100000 | 1600 | O=C1Nc2ccc(C(=O)O)cc2/C1=C/c1ccc2[nH]ccc2c1 [Example 177, 3-(1H-Indol-5-ylmethylene)-2-oxo-2,3-dihydro-1H-indole-5-carboxylic acid]
> 100000 | 4520 | Nc1ccc2c(c1)/C(=C/c1ccc3[nH]ccc3c1)C(=O)N2 [Example 179, 5-Amino-3-(1H-indol-5-ylmethylene)-1,3-dihydro-indol-2-one]
1110 | 5420 | Cc1c(/C=C2\C(=O)Nc3ccc(N)cc32)[nH]c2ccccc12 [Example 180, 5-Amino-3-(3-methyl-1H-indol-2-ylmethylene)-1,3-dihydroindol-2-one]
5400 | 5940 | Cc1[nH]c2ccccc2c1/C=C1\C(=O)Nc2ccc(C(=O)O)cc21 [Example 182, 3-(2-Methyl-1H-indol-3-ylmethylene)-2-oxo-2,3-dihydro-1H-indole-5-carboxylic acid]
> 100000 | 13800 | Cc1[nH]c2ccccc2c1/C=C1\C(=O)Nc2ccc(N)cc21 [Example 187, 5-Amino-3-(2-methyl-1H-indol-3-ylmethylene)-1,3-dihydroindol-2-one]
220 | – | Cc1c[nH]c(/C=C2\C(=O)Nc3ccc(Cl)cc32)c1CCC(=O)O [Example 216, 3-[2-(5-Chloro-2-oxo-1,2-dihydroindol-3-ylidenemethyl)-4-methyl-1H-pyrrol-3-yl]-propionic acid]
210 | – | COc1ccc2c(c1)NC(=O)/C2=C\c1[nH]cc(C)c1CCC(=O)O [Example 217, 3-[2-(6-Methoxy-2-oxo-1,2-dihydroindol-3-ylidenemethyl)-4-methyl-1H-pyrrol-3-yl]-propionic acid]
3750 | – | COc1ccc2c(c1)/C(=C/c1[nH]cc(C)c1CCC(=O)O)C(=O)N2 [Example 222, 3-[2-(5-Methoxy-2-oxo-1,2-dihydroindol-3-ylidenemethyl)-4-methyl-1H-pyrrol-3-yl]-propionic acid]
